Consider one substance from patent US10786514B2, “Dosage regiment of ferric maltol” (Shield TX (UK) Limited, priority 2015, dated 2020).

Holding throughout (assay type): in vivo, human
Data set [1] can be described thus: Phase I pharmacokinetic study: tolerability. The following applies: doses above 30 mg and up to 90 mg twice daily, 8 days, iron-deficient subjects with active inflammatory disease. The method, then:
(§1) These studies were primarily pharmacokinetic and conducted in subjects with iron deficiency having active inflammatory disease or acute chronic inflammation. An open-label, randomised, single and repeat dose parallel group Phase I pharmacokinetic study was carried out to evaluate the effect of single and repeated twice daily (bid) oral doses of ST10 at 30 mg, 60 mg and 90 mg for 8 days.
(§2) 24 subjects with iron deficiency (with or without anaemia) were randomly allocated to one of the three ST10 dose groups as follows:
(§3) Group 1: 9 subjects received ST10, 30 mg twice daily for 7 days (days 1-7) plus a final 30 mg dose on the morning of day 8.
(§4) Group 2: 8 subjects received ST10, 60 mg twice daily for 7 days (days 1-7) plus a final 60 mg dose on the morning of day 8.
(§5) Group 3: 7 subjects received ST10, 90 mg twice daily for 7 days (days 1-7) plus a final 90 mg dose on the morning of day 8.

Data set [2] is described as follows: Phase I pharmacokinetic study: serum total iron concentration. Particulars: for maximum mean serum total iron concentration: Day 1, iron-deficient subjects. Here is the method:
as §1, §2, §3, §4, §5
(§6) On day 1, following fasting for at least 1.5-2 hours beforehand, ST10 was administered (30 mg, 60 mg or 90 mg) and blood samples collected over the following 6 h for analysis. 60 mg was administered as two 30 mg capsules and 90 mg was administered as three 30 mg capsules, both as a single dose. Subjects continued dosing with ST10 on the evening of day 1 then every morning and evening for the next 6 days (Days 2 to 7).
On day 8 following fasting for at least 1.5-2 hours beforehand the last dosing of ST10 was administered (30 mg, 60 mg or 90 mg) and blood samples collected over the following 6 h for analysis.
On Days 1 and 8 blood samples were collected predose (0 h=time of ST10 dose) and at 5 minutes(for NTBI only), 15 minutes, 30 minutes, 45 minutes, and 1, 1.5, 2, 3, 4 and 6 h postdose.
These studies used transferrin saturation and total serum iron as measurements of iron uptake from the gut into the transport mechanisms. In addition serum ferritin was used as a measure of iron storage status at the end of the dosing period; all of these measurements are standard and well recognised.
One subject in the 60 mg dose group prematurely withdrew from the study on Day 7, so full profiles of all serum iron parameters were available in the 30 mg dose group for 9 subjects (days 1 and 8), in the 60 mg dose group 8 subjects on day 1 and for 7 subjects on day 8, and in the 90 mg dose group for 7 subjects (days 1 and 8).

Data set [3] can be described thus: Phase I pharmacokinetic study: total iron binding capacity (TIBC). Particulars: over time and across 30, 60, 90 mg dose groups. Here is the method:
as §1, §6
On day 8 following fasting for at least 1.5-2 hours beforehand the last dosing of ST10 was administered (30 mg, 60 mg or 90 mg) and blood samples collected over the following 6 h for analysis. […]
Serum concentrations of transferrin, total iron binding capacity (TIBC), ferritin and soluble transferrin receptor; and reticulocyte haemoglobin concentrations (CHr) in whole blood were measured by central laboratories using appropriately validated methods. […]

As for ferric trimaltol [ST10], the tolerability result in data set [1] is listed as “well tolerated”. For the same substance, the “maximum mean serum total iron concentration” value in data set [2] (30 mg oral dose group) came to 32.3 µmol/L; in data set [2] (60 mg oral dose group), 49.1 µmol/L; in data set [2] (90 mg oral dose group), 48.7 µmol/L. In addition, the “serum total iron concentrations on Day 8 versus Day 1” value in data set [2] (Day 8, 30, 60, 90 mg dose groups) is “Comparable”. In addition, the “total iron binding capacity, mean concentration” value in data set [3] was “approximately 70 μmol/L”.
